Experimental data: patent publication US7846936B2, “Combinations for the treatment of diseases involving cell proliferation, migration or apoptosis of myeloma cells or angiogenesis” (Boehringer Ingelheim International GmbH, priority 2003, dated 2010)

Key:
[1] = tested on: FaDu tumours (human squamous carcinoma cells); assay: in vivo xenograft experiment, subcutaneous FaDu tumours; conditions: nude mice, 100 mg/kg orally twice weekly
Method: By increasing the dose to 200 mg/kg orally twice weekly an even better anti-tumour effect is expected.

[2] = tested on: IL-6 secretion by BMSC mono-cultures; assay: IL-6 secretion of BMSC mono-cultures (Table III); format: cell-based
Source text: (§1) For comparison, the inhibition effect on BMSC mono-cultures (native) and, as control, the level of secretion of U266 mono-cultures, were also investigated.

CDK2 = CDK2 (Homo sapiens, UniProt P24941); assay: kinase inhibition panel (Table I); format: biochemical
[3] = tested on: t(14;16) MM1.s myeloma cells; assay: apoptosis of myeloma cells; format: cell-based
Lyn = Lyn (Homo sapiens, UniProt P07948); assay: kinase inhibition panel (Table I); format: biochemical
oral bioavailability = format: in vivo; conditions: mice
cell lines with t(4;14) = assay: apoptosis on cell lines with t(4;14); format: cell-based; conditions: in vitro
[4] = tested on: IL-6 secretion in U-266 + BMSC co-cultures; assay: IL-6 secretion in transwell and contact co-cultures of U-266 myeloma cells and BMSC cells (Table III); format: cell-based
Source text: as §1

[5] = tested on: IL-6 secretion by BMSC cells; assay: IL-6 secretion by bone marrow stromal cells (Table II); format: cell-based
[6] = tested on: IL-6 secretion by BMSC cells; assay: as above; format: cell-based; remark: listed apart in the source
Source text: For comparison, the inhibition effect with inhibition of anti-bFGF (+anti-bFGF), anti-VEGF (+anti-VEGF) and a combination of anti-bFGF and anti-VEGF (+anti-VEGF+anti-bFGF) were also investigated.

[7] = tested on: SKOV-3 cells (human ovarian carcinoma); assay: SKOV-3 xenograft combination experiment; format: in vivo, nude mice (NMRI nu/nu); conditions: SKOV-3 tumours in nude mice, 15 mg/kg daily per os, day 31
Method: The following experiment was performed in order to investigate the effect of a combination therapy with suboptimal doses of an antagonist of at least one receptor selected from VEGFR 1 to 3, PDGFRα and β, FGFR1, 2 and 3, EGFR, HER2, IGF1R, HGFR or c-Kit, which is further an antagonist of a src tyrosine kinase family member, namely the di-chloride salt of (Z)-3-(1-(4-(N-((4-methyl-piperazin-1-yl)-methylcarbonyl)-N-methyl-amino)-phenylamino)-1-phenyl-methylene]-6-methoxycarbonyl-2-indolinone (compound referred to as C12(T)), which is the di-chloride salt of above exemplified compound (T), and a dual antagonist of the epidermal growth factor (EGF) receptor and of the human epidermal growth factor of type 2 (HE type 2) receptor, namely the compound 4-[(3-chloro-4-fluorophenyl)amino]-6-{[4-(N,N-dimethylamino)-1-oxo-2-buten-1-yl]amino}-7-((S)-tetrahydrofuran-3-yloxy)-quinazoline, (compound referred to as EGFR/HER2 inh., and described in WO 02/50043 as exemplified compound of Example 1(10)), on the reduction of tumour growth, in comparison to the mono-therapies at the same doses. […]
Daily per os treatment was initially performed for 31 days. […] The calculated treated tumour to control tumour (T/C) ratio at this time point was 35% for the group treated with 15 mg/kg EGFR/HER2 inh., 32% for the group treated with 50 mg/kg C12(T), and 13% for the group treated with the combination. […]

[8] = clinically tested, also in conjunction with chemotherapy; cited from earlier work

Sequence of Lyn (P07948 whole entry, species assumed): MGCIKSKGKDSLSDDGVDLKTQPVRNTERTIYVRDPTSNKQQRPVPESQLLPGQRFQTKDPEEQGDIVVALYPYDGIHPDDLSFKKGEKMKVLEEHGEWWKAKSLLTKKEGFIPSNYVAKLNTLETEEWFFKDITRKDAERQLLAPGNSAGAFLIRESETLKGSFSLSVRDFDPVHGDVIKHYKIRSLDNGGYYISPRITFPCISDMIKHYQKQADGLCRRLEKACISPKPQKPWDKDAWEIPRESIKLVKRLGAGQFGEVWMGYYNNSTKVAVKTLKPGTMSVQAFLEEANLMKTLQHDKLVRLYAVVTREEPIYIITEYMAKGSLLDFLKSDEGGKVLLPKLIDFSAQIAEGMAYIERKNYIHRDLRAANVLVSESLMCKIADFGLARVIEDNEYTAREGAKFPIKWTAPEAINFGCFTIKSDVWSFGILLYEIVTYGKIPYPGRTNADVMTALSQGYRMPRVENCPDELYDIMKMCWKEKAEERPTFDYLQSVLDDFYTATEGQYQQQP

CCS(=O)(=O)O.COC(=O)c1ccc2c(c1)NC(=O)/C2=C(\Nc1ccc(N(C)C(=O)CN2CCN(C)CC2)cc1)c1ccccc1 [MES(T), monoethanesulfonate salt of 3-Z-[1-(4-(N-((4-methyl-piperazin-1-yl)-methylcarbonyl)-N-methyl-amino)-anilino)-1-phenyl-methylene]-6-methoxycarbonyl-2-indolinone]
T/C (Tumour/Control) value [1]: 31%
IL-6 secretion, BMSC mono-cultures ([2]; MES(T) 50 nM): 213.4
IL-6 secretion, BMSC mono-cultures ([2]; MES(T) 125 nM): 192.1
IL-6 secretion, BMSC mono-cultures ([2]; MES(T) 250 nM): 69.9
IL-6 secretion, BMSC mono-cultures ([2]; MES(T) 500 nM): 38.6
IC50 (CDK2): > 10 µM
effect on dexamethasone-induced apoptosis ([3]; combined with dexamethasone): enhances the apoptosis induced by dexamethasone
apoptosis of myeloma cells ([3]; t(14;16) MM1.s myeloma cells, MES(T) alone): pro-apoptotic effects
IC50 (Lyn): 0.195 µM
oral bioavailability (oral bioavailability): orally bioavailable
apoptosis on cell lines with t(4;14) (cell lines with t(4;14)): Direct induction of apoptosis
IL-6 secretion, Contact U-266 + BMSC co-cultures ([4]; MES(T) 125 nM): 259.6
IL-6 secretion, Contact U-266 + BMSC co-cultures ([4]; MES(T) 250 nM): 199.4
IL-6 secretion, Contact U-266 + BMSC co-cultures ([4]; MES(T) 500 nM): 114.7
effect on IL-6 secretion of BMSC cultures stimulated by myeloma cells ([4]; transwell and contact co-cultures): decrease to its basal (native) value the level of IL-6 secretion
IL-6 secretion, Transwell U-266 + BMSC co-cultures ([4]; MES(T) 50 nM): 354.5
IL-6 secretion, Transwell U-266 + BMSC co-cultures ([4]; MES(T) 125 nM): 297.6
IL-6 secretion, Transwell U-266 + BMSC co-cultures ([4]; MES(T) 250 nM): 231.1
IL-6 secretion, Transwell U-266 + BMSC co-cultures ([4]; MES(T) 500 nM): 123.9
IL-6 secretion by BMSC cells ([5]; +VEGF, MES(T) 10 nM): 122.3
IL-6 secretion by BMSC cells ([5]; +VEGF, MES(T) 50 nM): 130.7
IL-6 secretion by BMSC cells ([5]; +VEGF, MES(T) 125 nM): 141.0
IL-6 secretion by BMSC cells ([5]; +VEGF, MES(T) 250 nM): 65.5
IL-6 secretion by BMSC cells ([5]; +VEGF, MES(T) 500 nM): 14.8
IL-6 secretion by BMSC cells ([5]; +anti-VEGF + anti-bFGF, MES(T) 10 nM): 68.1
IL-6 secretion by BMSC cells ([5]; +anti-VEGF + anti-bFGF, MES(T) 50 nM): 63.4
IL-6 secretion by BMSC cells ([5]; +anti-VEGF + anti-bFGF, MES(T) 125 nM): 86.1
IL-6 secretion by BMSC cells ([5]; +anti-VEGF, MES(T) 10 nM): 148.6
IL-6 secretion by BMSC cells ([5]; +anti-VEGF, MES(T) 50 nM): 155.2
IL-6 secretion by BMSC cells ([5]; +anti-VEGF, MES(T) 125 nM): 166.7
IL-6 secretion by BMSC cells ([5]; +anti-VEGF, MES(T) 250 nM): 89.4
IL-6 secretion by BMSC cells ([5]; +anti-VEGF, MES(T) 500 nM): 16.2
IL-6 secretion by BMSC cells ([5]; +anti-bFGF, MES(T) 10 nM): 68.9
IL-6 secretion by BMSC cells ([5]; +anti-bFGF, MES(T) 500 nM): 20.2
IL-6 secretion by BMSC cells ([5]; +bFGF, MES(T) 10 nM): 150.5
IL-6 secretion by BMSC cells ([5]; +bFGF, MES(T) 50 nM): 179.7
IL-6 secretion by BMSC cells ([5]; +bFGF, MES(T) 125 nM): 91.2
IL-6 secretion by BMSC cells ([5]; +bFGF, MES(T) 250 nM): 76.9
IL-6 secretion by BMSC cells ([5]; +bFGF, MES(T) 500 nM): 43.4
IL-6 secretion by BMSC cells ([5]; native, MES(T) 10 nM): 130.2
IL-6 secretion by BMSC cells ([5]; native, MES(T) 50 nM): 170.4
IL-6 secretion by BMSC cells ([5]; native, MES(T) 125 nM): 97.5
IL-6 secretion by BMSC cells ([5]; native, MES(T) 250 nM): 76.5
IL-6 secretion by BMSC cells ([5]; native, MES(T) 500 nM): 39.6
IL-6 secretion by BMSC cells ([6]; +anti-VEGF + anti-bFGF, MES(T) 250 nM): 45.0
IL-6 secretion by BMSC cells ([6]; +anti-VEGF + anti-bFGF, MES(T) 500 nM): 13.5
IL-6 secretion by BMSC cells ([6]; +anti-bFGF, MES(T) 50 nM): 81.3
IL-6 secretion by BMSC cells ([6]; +anti-bFGF, MES(T) 125 nM): 42.4
IL-6 secretion by BMSC cells ([6]; +anti-bFGF, MES(T) 250 nM): 33.0

CN(C)CC=CC(=O)Nc1cc2c(Nc3ccc(F)c(Cl)c3)ncnc2cc1O[C@H]1CCOC1 [EGFR/HER2 inh., 4-[(3-chloro-4-fluorophenyl)amino]-6-{[4-(N,N-dimethylamino)-1-oxo-2-buten-1-yl]amino}-7-((S)-tetrahydrofuran-3-yloxy)-quinazoline]
treated tumour to control tumour (T/C) ratio [7]: 35%

Cc1cc(C)c(/C=C2\C(=O)Nc3ccccc32)[nH]1 [SU5416]
side effect in clinical testing [8]: thromboembolic events
